Legend:
Type in all cases: in vivo
Parameters in all cases: key: 5: completely killed; 4: seriously injured; 3: considerably injured; 2: somewhat injured; 1: slightly injured; 0: not injured (normally grown)
[1] = test system: paddy rice; test: Experiment 7 flooded soil treatment: injury to paddy rice; settings: evaluated 4 weeks after treatment
Description: (§1) Paddy soil (clay loam) was put into a pot so as to have a surface area of 1/15500 ares. Uniformly mixed seeds of several kinds of weeds, viz., nobie (barnyardgrass, Echinochloa spp.), broad-leaved weeds, hotarui (bulrush, Scirpus juncoides) and tamagayatsuri (small-flowered umbrellaplant, Cyperus difformis), were sown in the surface layer of the soil in each pot, and then paddy rice seedlings at the two- or three-leaved stage were transplanted into each pot to a depth of 2 cm, and water was fed into each pot so as to provide a 3 cm deep water layer on the soil surface. After 3 days, in other words at the initial stage of germination of nobie (barnyardgrass, Echinochloa spp.), a predetermined amount of a selected compound obtained in a manner analogous to Example 14 in the form of diluted aqueous solution was dropped into the water layer in each pot. After that, the pots were kept in a glass chamber to allow the paddy rice and the weeds to grow, and after the lapse of 4 weeks from the treatment with the selected compounds, the herbicidal effects and the degree of injury to the paddy rice were evaluated. The evaluation of the herbicidal effects was similarly conducted as that of Experiment 1.

[2] = test system: nobie (barnyardgrass, Echinochloa spp.); test: Experiment 7 flooded soil treatment: nobie; settings: evaluated 4 weeks after treatment
Description: as §1

[3] = test system: broad-leaved weeds; test: Experiment 7 flooded soil treatment: broad-leaved weeds; settings: evaluated 4 weeks after treatment
Description: as §1

[4] = test system: hotarui (bulrush, Scirpus juncoides); test: Experiment 7 flooded soil treatment: hotarui; settings: evaluated 4 weeks after treatment
Description: as §1

[5] = test system: tamagayatsuri (small-flowered umbrellaplant, Cyperus difformis); test: Experiment 7 flooded soil treatment: tamagayatsuri; settings: evaluated 4 weeks after treatment
Description: as §1

[6] = test system: rice; test: Experiment 8 foliage treatment: rice; settings: foliage spray of wettable powder suspension, evaluated 4 weeks after treatment
Procedure: (§2) Upon seedling stage (two- or three-leaved stage) of rice, cockspur (Panicum crus-galli), garden radish, aobiyu (slender amaranth, Amaranthus viridis) and mehishiba (henry crabgrass, Digitaria cliaris) which were grown on a cultivated soil put in pots of 1/15500 ares, a selected compound obtained in a manner analogous to Example 14, in suspended wettable powder, was sprayed to each plant. After that, the pots were kept in a glass chamber to allow each plant to grow, and after the lapse of 4 weeks from the treatment with the selected compounds the herbicidal effects were evaluated. The evaluation of the herbicidal effects was similarly conducted as to that of Experiment 1.

[7] = test system: cockspur (Panicum crus-galli); test: Experiment 8 foliage treatment: cockspur; settings: foliage spray of wettable powder suspension, evaluated 4 weeks after treatment
Procedure: as §2

[8] = test system: garden radish; test: Experiment 8 foliage treatment: garden radish; settings: foliage spray of wettable powder suspension, evaluated 4 weeks after treatment
Procedure: as §2

[9] = test system: aobiyu (slender amaranth, Amaranthus viridis); test: Experiment 8 foliage treatment: aobiyu; settings: foliage spray of wettable powder suspension, evaluated 4 weeks after treatment
Procedure: as §2

[10] = test system: mehishiba (henry crabgrass, Digitaria cliaris); test: Experiment 8 foliage treatment: mehishiba; settings: foliage spray of wettable powder suspension, evaluated 4 weeks after treatment
Procedure: as §2

Row | SMILES | Injury of Paddy ([1]; 6.25 g/10a) | Injury of Paddy ([1]; 12.5 g/10a) | Herbicidal Effect nobie ([2]; 6.25 g/10a) | Herbicidal Effect nobie ([2]; 12.5 g/10a) | Herbicidal Effect broad-leaved weed ([3]; 6.25 g/10a) | Herbicidal Effect broad-leaved weed ([3]; 12.5 g/10a) | Herbicidal Effect hotarui ([4]; 6.25 g/10a) | Herbicidal Effect hotarui ([4]; 12.5 g/10a) | Herbicidal Effect tamagayatsuri ([5]; 6.25 g/10a) | Herbicidal Effect tamagayatsuri ([5]; 12.5 g/10a) | Herbicidal Effect rice ([6]; 40 g/10a) | Herbicidal Effect rice ([6]; 80 g/10a) | Herbicidal Effect cockspur ([7]; 40 g/10a) | Herbicidal Effect cockspur ([7]; 80 g/10a) | Herbicidal Effect garden radish ([8]; 40 g/10a) | Herbicidal Effect garden radish ([8]; 80 g/10a) | Herbicidal Effect aobiyu ([9]; 40 g/10a) | Herbicidal Effect aobiyu ([9]; 80 g/10a) | Herbicidal Effect mehishiba ([10]; 40 g/10a) | Herbicidal Effect mehishiba ([10]; 80 g/10a)
1 | COC(=O)COc1cc(N(C(=O)C2=C(C(=O)OC)CCCC2)C(=O)c2cccs2)c(F)cc1Cl [compound 99] | 0 | 0 | 5 | 5 | 5 | 5 | 4 | 4 | 4 | 5 | 1 | 1 | 1 | 1 | 4 | 4 | 4 | 5 | 1 | 1
2 | C#CC(C)Oc1cc(N(C(=O)C2=C(C(=O)OCCC)CCCC2)C(=O)c2ccsc2)c(F)cc1Cl (stereo not shown) [compound 101] | 0.5 | 1 | 5 | 5 | 5 | 5 | 4 | 4 | 5 | 5 | 1 | 1 | 1 | 1 | 5 | 5 | 5 | 5 | 1 | 1
3 | C#CC(C)Oc1cc(N(C(=O)C2=C(C(=O)OCCCC)CCCC2)C(=O)c2cccs2)c(F)cc1Cl (stereo not shown) [compound 93] | 0.5 | 0.5 | 5 | 5 | 5 | 5 | 4 | 4 | 4 | 4 | 1 | 1 | 1 | 1 | 4 | 5 | 5 | 5 | 1 | 1
4 | C#CC(C)Oc1cc(N(C(=O)C2=C(C(=O)OCCC)CCCC2)C(=O)c2cccs2)c(F)cc1Cl (stereo not shown) [compound 92] | 0 | 0 | 5 | 5 | 5 | 5 | 4 | 4 | 4 | 5 | 1 | 1 | 1 | 1 | 4 | 4 | 5 | 5 | 1 | 1
5 | C#CC(C)Oc1cc(N(C(=O)C2=C(C(=O)OCCOC)CCCC2)C(=O)c2cccs2)c(F)cc1Cl (stereo not shown) [compound 94] | 0.5 | 0.5 | 5 | 5 | 5 | 5 | 5 | 5 | 5 | 5 | 1 | 1 | 1 | 1 | 5 | 5 | 5 | 5 | 1 | 1
6 | COC(=O)C1=C(C(=O)N(C(=O)c2cccs2)c2cc(OC3CCCC3)c(Cl)cc2F)CCCC1 [compound 98] | 0.5 | 0.5 | 5 | 5 | 5 | 5 | 4 | 5 | 5 | 5 | 1 | 1 | 1 | 1 | 4 | 4 | 4 | 5 | 1 | 1
7 | C#CC(C)Oc1cc(N(C(=O)C2=C(C(=O)OC)CCCC2)C(=O)c2sccc2C)c(F)cc1Cl (stereo not shown) [compound 95] | 0 | 0 | 5 | 5 | 5 | 5 | 4 | 4 | 5 | 5 | 1 | 1 | 1 | 1 | 4 | 4 | 5 | 5 | 1 | 1
8 | C#CC(C)Oc1cc(N(C(=O)C2=C(C(=O)OC)CCCC2)C(=O)c2ccc(C)s2)c(F)cc1Cl (stereo not shown) [compound 96] | 0 | 0.5 | 5 | 5 | 5 | 5 | 4 | 4 | 5 | 5 | 1 | 1 | 1 | 1 | 5 | 5 | 5 | 5 | 1 | 1

Source: patent US6337417B1, “N-phenyltetrahydrophthalamic acid derivatives, methods of producing same, and herbicides containing same as effective components” (Central Glass Co., Ltd., priority 1994, dated 2002)
